# Molecular target: T1, 5α-reductase (Homo sapiens, UniProt P18405)
# T1 construct: host or cells: Hs68 human genital skin fibroblasts
# T1 sequence (P18405 1-259): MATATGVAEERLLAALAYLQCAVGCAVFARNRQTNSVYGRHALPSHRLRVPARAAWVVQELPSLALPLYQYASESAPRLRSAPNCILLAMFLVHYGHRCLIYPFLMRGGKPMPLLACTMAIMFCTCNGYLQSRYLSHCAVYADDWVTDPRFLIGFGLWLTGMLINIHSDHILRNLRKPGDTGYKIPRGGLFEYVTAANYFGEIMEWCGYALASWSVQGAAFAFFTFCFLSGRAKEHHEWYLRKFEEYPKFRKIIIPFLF
# Assay: 5α-Reductase activity in Hs68 human genital skin fibroblasts (conversion of labeled testosterone, TLC analysis)
# Type: cell-based
# Conditions: Hs68
# Protocol: Cell Culture: 5α-Reductase activity was measured using Hs68 human genital skin fibroblasts which were originally purchased from the American Type Culture Collection (Rockville, MD). The cells were grown in Dulbecco's Modified Eagle's Medium (DMEM) plus 10% stripped fetal bovine serum which was supplemented with amphotericin B ([…]) and gentamicin ([…]) (GIBCO, Grand Island, NY). The serum was stripped of endogenous steroids by incubation with dextran-coated charcoal prior to its addition to the media. The cells were maintained at 37°C in an atmosphere of 95% air, 5% CO2 and were passaged every 7-10 days by exposure to a trypsin-EDTA solution (0.025% trypsin, 0.265 mM EDTA). Prior to the assay the Hs68 cells were harvested and plated in Falcon 6-well plates (Becton Dickinson Labware, Lincoln Park, NJ) at a density of 6 x 10^4 cells per well. The cells were allowed to grow for 4-5 days or until they reached approximately 80% confluence.
# Assay Method I: The substrate was prepared by dissolving unlabeled testosterone (Sigma Chemical Co., St. Louis, MO) in absolute ethanol followed by the addition of [7-^3H (N)]-testosterone (23.3 Ci/mmole, New England Nuclear, Boston, MA). The steroid solution was taken to dryness under a stream of nitrogen and then reconstituted in media.
# Assay Method II: The substrate used for this method was [^14C]-testosterone (50 mCi/mmol) (New England Nuclear, Boston, MA). An aliquot of the substrate was taken to dryness under a stream of nitrogen. After the addition of 30 µl of ethanol, the testosterone was dissolved in an appropriate volume of media.
# Sample Preparation: The test compounds were brought up in absolute ethanol in order to achieve the desired concentration. Subsequent dilutions of the test compounds with media were performed by the Biomek 1000 Automated Laboratory Workstation (Beckman Instruments, Palo Alto, CA). The existing media in the sample wells was aspirated and replaced with fresh media. Test compound was then added to the wells followed by the addition of 0.5 ml of substrate. The volume of the incubation mixture was maintained at 2.0 ml. The final substrate concentration was 12 µM. The concentration of the test compounds ranged from 0.001-150 µM. An additional three wells (background) containing media and substrate but no cells were also included to account for the non-enzymatic metabolism of the substrate. The plates were returned to the incubator and incubated for four hours.
# At the end of the incubation the media was collected and transferred to an extraction tube containing 5 ml of toluene-ethanol (9:1), to which has been added 20-250 µg each of unlabeled carrier steroids (estriol, estradiol, estrone, 5α-androstan-3α,17β-diol, 5α-androstan-3β,17β-diol, 4-androstene-3,17-dione, 5α-androstan-3,17-dione, testosterone, and 5α-dihydrotestosterone) (Steraloids, Inc., Wilton, NH). In the case of Assay Method I the extraction tube also contained 1,000 and 10,000 dpm of [4-^14C]-dihydrotestosterone (50-60 mCi/mmol) and [4-^14C]-testosterone (50 mCi/mmol) (New England Nuclear, Boston, MA), respectively. The [^14C]-steroids were included as recovery standards to quantify procedural losses. A small amount of NaCl was also added to the extraction tubes to prevent foaming. The samples were vortexed for approximately 30 seconds and then centrifuged for 10 minutes at 500 x g. The organic phase was collected and the samples taken to dryness, redissolved in dichloromethane-methanol (9:1) and were analyzed by thin layer chromatography using one of the methods described below.
# Chromatography Method I (two-dimensional): The extracted samples were appled to silica gel 60F254, 0.25 mm thick, thin layer chromatography plates (EM Science, Cincinnati, OH). The plates were developed in the first dimension with a solvent system containing dichloromethane-ethyl acetate-methanol-acetic acid (160:38:1.5:0.5, Mallinckrodt Inc., Paris, KY).
row,Compound,inhibition at 1 µM [%]
1,"CN1C(=O)CC[C@@H]2c3ccc(Cl)cc3CC[C@H]21 (racemic) [Example 6, trans-dl-8-chloro-4-methyl-1,2,3,4,4a,5,6,10b-octahydrobenzo[f]quinolin-3-one]",100

# Same assay, conditions: Hs68, test compound 0.316 µM; Hs68 cells; substrate testosterone 12 µM; incubated four hours; read-out: % Inhibition
row,Compound,inhibition at 0.316 µM [%]
1,"CN1C(=O)CC[C@@H]2c3ccc(I)cc3CC[C@H]21 (racemic) [Example 3, trans-dl-8-iodo-4-methyl-1,2,3,4,4a,5,6,10b-octahydrobenzo[f]-quinolin-3-one]",100
2,"O=C1CC[C@@H]2c3cc(Cl)c(Cl)cc3CC[C@H]2N1 (racemic) [Example 4, trans-dl-8,9-dichloro-1,2,3,4,4a,5,6,10b-octahydrobenzo[f]quinolin-3-one]",82.1
3,"CCOC(=O)C=Cc1ccc2c(c1)CCC1C2CCC(=O)N1C (racemic) [Example 16, trans-dl-8-ethoxycarbonylethenediyl-4-methyl-1,2,3,4,4a,5,6,10b-octahydrobenzo[f]quinolin-3-one]",80
4,"CCOC(=O)CCc1ccc2c(c1)CCC1C2CCC(=O)N1C (racemic) [Example 22, trans-dl-8-ethoxycarbonylethanediyl-4-methyl-1,2,3,4,4a,5,6,10b-octahydrobenzo[f]quinolin-3-one]",40.7
5,"COC(=O)C=Cc1ccc2c(c1)CCC1C2CCC(=O)N1C (racemic) [Example 23, trans-dl-8-methoxycarbonylethenediyl-4-methyl-1,2,3,4,4a,5,6,10b-octahydrobenzo[f]quinolin-3-one]",76.5
6,"CN1C(=O)CCC2c3ccc(C=CC(=O)O)cc3CCC21 (racemic) [Example 24, trans-dl-8-carboxyethenediyl-4-methyl-1,2,3,4,4a,5,6,10b-octahydrobenzo[f]quinolin-3-one]",4.96
7,"CN1C(=O)CCC2c3ccc(C=CC(=O)NC(C)(C)C)cc3CCC21 (racemic) [Example 25, trans-dl-8-t-butylaminocarbonylethenediyl-4-methyl-1,2,3,4,4a,5,6,10b-octahydrobenzo[f]quinolin-3-one]",35.9
8,"CC1(C)CC2NC(=O)CCC2c2ccc(Br)cc21 (racemic) [Example 27, trans-dl-8-bromo-6,6-dimethyl-1,2,3,4,4a,5,6,10b-octahydrobenzo[f]quinolin-3-one]",44.7
9,"CC(C)(C)c1ccc2c(c1)CCC1NC(=O)CCC21 (racemic) [Example 30, trans-dl-8-t-butyl-1,2,3,4,4a,5,6,10b-octahydrobenzo[f]quinolin-3-one]",38.5
10,"CN1C(=O)CCC2c3ccc(C(C)(C)C)cc3CCC21 (racemic) [Example 31, trans-dl-8-t-butyl-4-methyl-1,2,3,4,5,6,10b-octahydrobenzo[f]quinolin-3-one]",82.1

# Same assay, conditions: Hs68, test compound 1.00 µM; Hs68 cells; substrate testosterone 12 µM; incubated four hours
row,Compound,inhibition at 1 µM [%]
1,"CN1C(=O)CC[C@@H]2c3ccc(Br)cc3CC[C@H]21 (racemic) [Example 1A, trans-dl-8-bromo-4-methyl-1,2,3,4,4a,5,6,10b-octahydrobenzo[f]quinolin-3-one]",98
2,"CN1C(=O)CC[C@@H]2c3ccc(Br)cc3CC[C@@H]21 (racemic) [Example 1B, cis-dl-8-bromo-4-methyl-1,2,3,4,4a,5,6,10b-octahydrobenzo[f]quinolin-3-one]",92.7
3,"CN1C(=O)CC[C@@H]2c3ccc(Cl)cc3CC[C@@H]21 (racemic) [Example 7, cis-dl-8-chloro-4-methyl-1,2,3,4,4a,5,6,10b-octahydrobenzo[f]quinolin-3-one]",100

# Same assay, conditions: Hs68, test compound 1.00 µM; Hs68 cells; substrate testosterone 12 µM; incubated four hours; read-out: % Inhibition
row,Compound,inhibition at 1 µM [%]
1,"O=C1CC[C@@H]2c3ccc(Br)cc3CC[C@H]2N1 (racemic) [Example 2, trans-dl-8-bromo-1,2,3,4,4a,5,6,10b-octahydrobenzo[f]quinolin-3-one]",100
2,"CN1C(=O)CC[C@@H]2c3cc(Cl)c(Cl)cc3CC[C@H]21 (racemic) [Example 5, trans-dl-8,9-dichloro-4-methyl-1,2,3,4,4a,5,6,10b-octahydrobenzo[f]quinolin-3-one]",100
3,"Cc1ccc2c(c1)CC[C@@H]1[C@@H]2CCC(=O)N1C (racemic) [Example 8, trans-dl-4,8-dimethyl-1,2,3,4,4a,5,6,10b-octahydrobenzo[f]quinolin-3-one]",100
4,"Cc1ccc2c(c1)CC[C@H]1[C@@H]2CCC(=O)N1C (racemic) [Example 9, cis-dl-4,8-dimethyl-1,2,3,4,4a,5,6,10b-octahydrobenzo[f]quinolin-3-one]",100
5,"CN1C(=O)CC[C@@H]2c3ccc(F)cc3CC[C@H]21 (racemic) [Example 10, trans-dl-8-fluoro-4-methyl-1,2,3,4,4a,5,6,10b-octahydrobenzo[f]quinolin-3-one]",100
6,"CN1C(=O)CC[C@@H]2c3ccc(F)cc3CC[C@@H]21 (racemic) [Example 11, cis-dl-8-fluoro-4-methyl-1,2,3,4,4a,5,6,10b-octahydrobenzo[f]quinolin-3-one]",59.2
7,"O=C1CCC2c3ccc(Cl)cc3CCC2N1 (racemic) [Example 17, trans-dl-8-chloro-1,2,3,4,4a,5,6,10b-octahydrobenzo[f]quinolin-3-one]",100
8,"COc1ccc2c(c1)CCC1NC(=O)CCC21 (racemic) [Example 18, trans-dl-8-methoxy-1,2,3,4,4a,5,6,10b-octahydrobenzo[f]quinolin-3-one]",69.8
9,"COc1ccc2c(c1)CCC1C2CCC(=O)N1C (racemic) [Example 19, trans-dl-8-methoxy-4-methyl-1,2,3,4,4a,5,6,10b-octahydrobenzo[f]quinolin-3-one]",93.2
10,"Cc1ccc2c(c1)CCC1NC(=O)CCC21 (racemic) [Example 20, trans-dl-8-methyl-1,2,3,4,4a,5,6,10b-octahydrobenzo[f]quinolin-3-one]",86.6
11,"O=C1CCC2c3ccccc3CCC2N1 (racemic) [Example 21, trans-dl-1,2,3,4,4a,5,6,10b-octahydrobenzo[f]quinolin-3-one]",100

# Same assay, conditions: Hs68, test compound 3.16 µM; Hs68 cells; substrate testosterone 12 µM; incubated four hours
row,Compound,inhibition at 3.16 µM [%]
1,"O=C1CCC2c3ccc(F)cc3CCC2N1 (racemic) [Example 15, trans-dl-8-fluoro-1,2,3,4,4a,5,6,10b-octahydrobenzo[f]quinolin-3-one]",100

# Same assay, conditions: Hs68, test compound 15.00 µM; Hs68 cells; substrate testosterone 12 µM; incubated four hours
row,Compound,inhibition at 15 µM [%]
1,"O=C1CCC2c3ccccc3CCC2N1 (racemic) [Example 14, cis-dl-1,2,3,4,4a,5,6,10b-octa-hydrobenzo[f]quinolin-3-one]",31.7

# Same assay, conditions: test compound 0.316 µM; Hs68 cells; substrate testosterone 12 µM; incubated four hours
row,Compound,% Inhibition [%]
1,"CC1CC2c3ccc(Cl)cc3CCC2N(C)C1=O (racemic) [Example 26A, trans-dl-8-chloro-2-(α-methyl)-4-methyl-1,2,3,4,4a,5,6,10b-octahydrobenzo[f]quinolin-3-one]",82.56
2,"CC1CC2c3ccc(Cl)cc3CCC2N(C)C1=O (racemic) [Example 26B, trans-dl-8-chloro-2-(β-methyl)-4-methyl-1,2,3,4,4a,5,6,10b-octahydrobenzo[f]quinolin-3-one]",76.36

# — patent EP0591583B1, “Benzo (f) quinolinones as 5-alpha-reductase inhibitors” (ELI LILLY AND COMPANY, priority 1992, dated 1994)
